According to patent US12239661B2, “Methods and compositions for treating undesired implanted tissue filler” (priority 2019, dated 2025):
Where two headings read alike, the source gives them in different places. Marks after values point to notes of the source that are not given here.

Experiments:
[1] = In vivo CT of filler nodule volume, density and 3D shape after test solutions 0-8 (Example 3)
Method: One hour after filler injections (T=1 h), 1.5 mL of selected solutions (Table 5, solutions 0-8, test items, solution 0 is normal saline and not hyperosmotic) were injected each into 9 dermal filler nodules in the right flank (ventral area).
(§1) A total of 7 CT-scans were performed at 1 h 15, 2 h, 4 h, 1 day (24 h), 3, 7 and 14 days after injection of the dermal filler. The clinical state of each animal is assessed once a week by body weight measurement and clinical observations.
The 10 SC injections of dermal filler on Day 0 were performed in the ventral area, (five nodules on each flank of the ventral area) for each pig. For each SC nodule, a theoretical volume of 500 μl was administered. One hour (±5 min) after injection of dermal filler, SC injection of the different solutions (prepared the day before) were performed into nine (9) nodules of dermal. For each SC nodule, a theoretical volume of 1.5 mL of test solution was administered.
The X-ray computed tomography acquisitions were performed with the Computed Tomography Scanner BrightSpeed 16 (General Electric). In order to measure the volume and the mean density and to visualize the 3D shape of the dermal filler (Radiesse® filler with or without test solution) injected, in vivo CT-scans were performed on Day 0: 1 h 15 (±10 min), 2 h (±15 min) and 4 h (±20 min), on Day 1 (24 h+1 h), Day 3, Day 7 and Day 14.
During CT acquisition on Day 0, the pigs received an IM injection of anesthesia. The animals were maintained under anesthesia until the CT acquisition at T=2 h (2 h after dermal filler injection session). Between these CT acquisitions, the animals were under surveillance in the recovery room on a heating mat with fluidotherapy. At the end of the CT acquisition at T=2 h, the pigs received a tattoo around each injected site. During the CT acquisitions at T=4 h and on Days 1, 3, 7 and 14, pigs received an IM injection of anesthesia. For the CT-scans, animals were positioned in dorsal recumbency and acquisitions were centered on the injection sites. The parameters of the CT-scan are described in Table 5.
The CT acquisition was analyzed with the software Avizo version 9.2.0. The objective of this analysis was to assess the degradation over time of the dermal filler injected by SC route after injection of different test solutions.
An image segmentation processing was performed on each CT acquisition. First, a manual pre-segmentation was performed around each nodule in order to roughly isolate the voxels corresponding to dermal filler product, which defined a Region of Interest (ROI). Second, an automatic segmentation was applied on the previously defined ROI using a global grey level thresholding procedure.
On day 0, a farm pig received ten (10) SC injections of Radiesse® dermal filler 0.5 mL (ventral area) (10 nodules in total). One hour after filler injections (T=1 h), 1.5 mL of one of eight test hyperosmotic solutions (1-8 solutions, Table 5) was injected at an injection site. One injection site was untreated and one injection site was treated with normal saline (0.9% wt/v NaCl).

[2] = SC injection of 1.5 mL into filler nodule
Method: as §1
On day 14, one pig received one SC injection of Radiesse® filler in order to represented a Day 0 injection which is considered a positive control and then, all pigs were euthanized and each nodule with a part of the skin, along with negative control skin (skin samples without injection), were sampled in order to perform histological analysis of, for example, the inflammation, the necrosis and the dermal filler presence at the injection site.

[3] = X-ray CT of volume, mean density and 3D shape of Radiesse nodules and injected hyperosmotic solutions (Example 4); assay type: in vivo, Pig (Sus scrofa domesticus)
Method: Pigs are injected by SC route with Radiesse® filler without Lidocaine (Test item). One hour after the Radiesse® filler injection, selected different hyperosmotic solutions are injected by SC route into the dermal filler nodules. For two Radiesse® filler nodules per pig, no additional product is injected; these nodules are used as controls.
The evolution over time of the volume and mean density of the Radiesse® filler nodules with injection of the different solutions are assessed by CT-scanner at selected time points: on Day 0, at about 1 hour (h) and 15 minutes (min), 2 h and 4 h after the Radiesse® filler injection and solution injection, and then, on Day 1 (about 24 h after Radiesse® filler injection), Day 3, Day 7 and Day 15.
On Day 0, 4 pigs received ten (10) SC injections of Radiesse® dermal filler (P20WK-EE-01) of about 500 μl/nodule in the flank (ventral area) at T=0. One hour after Radiesse® dermal filler injections (T=1 h), about 1.5 ml of different hyperosmotic solutions (P20WK-EE-02 to P20WK-EE-05) were each injected into 8 Radiesse® filler nodules. Two Radiesse® filler nodules per animal were not injected with hyperosmotic solution and served as controls.
A total of 7 CT-scans were performed at 1 h 15±10 min, 2 h±15 min, 4 h±20 min, 1 day (24 h±1 h), 3, 7 and 15 days after injection of the dermal filler, as described in FIG. 9A.
On Day 0 (TO), 10 SC injections of test item P20WK-EE-01 (Radiesse® dermal filler) were performed in the ventral area (five nodules on each flank of the ventral area). For each SC nodule, a theoretical volume of 500 μL was administered. One hour (±5 min) after injection of dermal filler, SC injections of the different solutions (prepared on Day −3) were performed into 8 nodules of dermal filler. For each injection of solution, a theoretical volume of 1.5 mL was administered (see, e.g., injection scheme in Table 11).
In order to measure the volume, the mean density and to visualize the 3D shape of the dermal filler SC injected (in presence or absence of different hyperosmotic solutions), in vivo CT-scans were performed on Day 0: 1 h 15 (±10 min), 2 h (±15 min) and 4 h (±20 min), on Day 1 (24 h±1 h), Day 3, Day 7 and Day 15.
The CT acquisitions are analyzed with the software Avizo version 9.2.0. The objective of this analysis was to assess the dispersion over time of the Radiesse® dermal filler injected by SC route after injection of different hyperosmotic solutions.
To achieve this goal, the evolution of these parameters is observed over time: • the volume of each nodule (Radiesse® dermal filler and solution separately), • the mean density of each nodule (Radiesse® dermal filler and solution separately), • the 3D shape of each nodule by visualization of the 3D model of each nodule at each time point (Radiesse® dermal filler with or without solution separately). Segmentation:
An image segmentation is performed on each CT acquisition on the […] reconstruction. At first, a manual pre-segmentation is performed around each nodule in order to roughly isolate the voxels corresponding to Radiesse® dermal filler and hyperosmotic solutions and defined a Region of Interest (ROI). Secondly, an automatic segmentation is applied on the ROI previously defined using a global grey level thresholding procedure. […] Similarly, all the voxels having a grey level between these HU values are selected in a ROI and corresponds to the pure solution or solution containing some dispersed Radiesse® dermal filler (see, FIG. 10).
Then, a 3D model of these selected voxels (see, FIG. 11) is obtained allowing the calculation of the total volume (in mm^3) and the mean density (in HU) of the two defined compartments of each nodule of Pure Radiesse® dermal filler and of each solution containing or not containing dispersed Radiesse® dermal filler.
The volume (in mm^3) of the ROI of Radiesse® dermal filler and the solutions corresponding to each nodule and the mean density (in HU) of each nodule are calculated at each time point.

In the case of [Ca+2].[Cl-].[Cl-] [sol 4, Calcium chloride], the “nodule visibility / degradation of filler at end of study” value ([1]; Day 14, CT 3D models) is reported as “largely degraded/dispersed the Radiesse® dermal filler”, the “Change in Volume as percent of Injected Volume, Day 14/15” value ([1]; Example 3 (Day 14), mean) is reported as 169.73* percent and the “Change in Volume as percent of Injected Volume, Day 0 + 2 h” value ([1]; Example 3, mean) is reported as 162.46%. For the same compound, the “Change in Volume as percent of Injected Volume, Day 0 + 4 h” value ([1]; Example 3, mean) was 157.72%, the “Change in Volume as percent of Injected Volume, Day 1” value ([1]; Example 3, mean) was 145.42* percent and the “Change in Volume as percent of Injected Volume, Day 3” value ([1]; Example 3, mean) was 174.24* percent. The “Change in Volume as percent of Injected Volume, Day 7” value ([1]; Example 3, mean) was 175.91* percent, the “Change in Volume as percent of Injected Volume, Day 0 + 1 h 15” value ([1]; Example 3, mean, 1.5 mL solution into 500 μl nodule) was 170.60* percent and the “local tolerance at injection site” value [2] was “large wound on pigs”. The “local tolerance at injection site” value ([2]; listed as CaCl2) was “strong local irritating effect” and the “local tolerance at injection site” value ([2]; listed as ClCl2) was “severe skin necrosis”.
With O.O.O=C([O-])CC(O)(CC(=O)[O-])C(=O)[O-].[Na+].[Na+].[Na+] [sol 9, Sodium citrate, dihydrate] the “Change in Volume as percent of Injected Volume, Day 14/15” value ([3]; Example 4 (Day 15), mean) was 1969%, the “Change in Volume as percent of Injected Volume, Day 0 + 1 h 15” value ([3]; Example 4, mean) was 1488% and the “Change in Volume as percent of Injected Volume, Day 0 + 2 h” value ([3]; Example 4, mean) was 1571%. For the same compound, the “Change in Volume as percent of Injected Volume, Day 0 + 4 h” value ([3]; Example 4, mean) was 1901%, the “Change in Volume as percent of Injected Volume, Day 1” value ([3]; Example 4, mean) was 2210% and the “Change in Volume as percent of Injected Volume, Day 3” value ([3]; Example 4, mean) was 2010%. For the same compound, the “Change in Volume as percent of Injected Volume, Day 7” value ([3]; Example 4, mean) was 2243%, the “average of the mean density of solution nodules, T=1 h 15” value ([3]; between −100 HU and 250 HU) was 18.4±7.0 HU and the “average of the mean density of solution nodules, T=2 h” value ([3]; between −100 HU and 250 HU) was 2.1±7.9 HU. The “mean volume of solution with potential dispersed Radiesse, T=2 h” value ([3]; between −100 HU and 250 HU) was 4319.7±989.2 mm^3, the “variation of the average of the mean density of solutions, Day 15 compared to T=1 h 15” value ([3]; between −100 HU and 250 HU) was 347.7% and the “average of the mean density of nodules, Day 1” value ([3]; pure Radiesse >250 HU) was 447.0±34.1 HU. The “average of the mean density of nodules, Day 3” value ([3]; pure Radiesse >250 HU) was 478.2±64.8 HU.
